The values that follow are results of earlier work, collected in PubChem BioAssay AID1259410 (Chemical Carcinogenesis Research Information System (CCRIS), 2018).

The data set has as its system rodent tumor promotion studies, tumor incidence. Briefly: CCRIS tumor promotion studies.

For the compound `CCC1(c2ccccc2)C(=O)N=C(O)NC1=O` (centres undefined), the outcome runs as follows: (Carcinogen: 2-(ACETYLAMINO)FLUORINE, Doses [Carcinogen]: 0.02% IN DIET FOR 4 WK, Doses [Promoter]: 0.05% IN DIET FOR 32 WK, Route [Carcinogen]: ORAL, Route [Promoter]: ORAL, Species: RAT, Strain/Sex: F344/MALE) “liver: hepatocellular carcinoma”; (Carcinogen: DIETHYLNITROSAMINE, 55-18-5, 2-ACETYLAMINOFLUORENE, 6292-55-3, CARBON TETRACHLORIDE, 56-23-5, Carcinogen: DIETHYLNITROSAMINE, 55-18-5, 2-ACETYLAMINOFLUORENE, 6292-55-3, CARBON TETRACHLORIDE, 56-23-5, Doses [Carcinogen]: 200 MG/KG ONCE FOLLOWED 2 WK LATER BY 0.03% 2-ACETYLAMINOFLUORENE IN DIET FOR 2 WK PLUS 2 ML/KG CARBON TETRACHLORIDE IN, Doses [Promoter]: 0.05% IN DIET STARTING 1 WK POST 2-ACETYLAMINOFLUORENE AND CONTINUED FOR 6 MO (STUDY DURATION: 7 MO), Route [Carcinogen]: INTRAPERITONEAL, ORAL, INTRAGASTRIC, Route [Carcinogen]: INTRAPERITONEAL, ORAL, INTRAGASTRIC, Route [Promoter]: ORAL, Species: RAT, Strain/Sex: WISTAR/MALE) “liver: hepatocellular carcinoma”; (Carcinogen: DIETHYLNITROSAMINE, 55-18-5, Doses [Carcinogen]: 2.5, 10, 25, 50 UG/G IN SALINE ONCE ON DAY 15 OF AGE, Doses [Promoter]: 0, 500 PPM IN DRINKING WATER FROM 28 DAYS OF AGE TO 12, 24, 40 WK POST-WEANING (STUDY DURATION: 42 WK), Route [Carcinogen]: INTRAPERITONEAL, Route [Promoter]: ORAL, Species: MOUSE, Strain/Sex: BALB/MALE) “liver: adenoma”; (Carcinogen: DIETHYLNITROSAMINE, 55-18-5, N-METHYLNITROSOUREA, 684-93-5, DIHYDROXY-DI-N- PROPYLNITROSAMINE, 53604-64-6, Carcinogen: DIETHYLNITROSAMINE, 55-18-5, N-METHYLNITROSOUREA, 684-93-5, DIHYDROXY-DI-N- PROPYLNITROSAMINE, 53604-64-6, Doses [Carcinogen]: 100 MG/KG IN SALINE AT BEGINNING OF STUDY, 20 MG/KG IN CITRATE BUFFERED SOLUTION ON D 2, 5, 8 AND 11, 0.1% IN DRINKING, Doses [Carcinogen]: 100 MG/KG IN SALINE AT BEGINNING OF STUDY, 20 MG/KG IN CITRATE BUFFERED SOLUTION ON D 2, 5, 8 AND 11, 0.1% IN DRINKING, Doses [Promoter]: 0, 500 PPM IN DIET BEGINNING POST SEQUENTIAL CARCINOGEN TREATMENT AND CONTINUING FOR DURATION OF STUDY (STUDY DURATION:, Route [Carcinogen]: IP, IP, ORAL, Route [Carcinogen]: IP, IP, ORAL, Route [Promoter]: ORAL, Species: RAT, Strain/Sex: F344/MALE) “thyroid: adenoma”; (Carcinogen: DIETHYLNITROSAMINE, 55-18-5, N-METHYLNITROSOUREA, 684-93-5, DIHYDROXY-DI-N- PROPYLNITROSAMINE, 53609-64-6, Carcinogen: DIETHYLNITROSAMINE, 55-18-5, N-METHYLNITROSOUREA, 684-93-5, DIHYDROXY-DI-N- PROPYLNITROSAMINE, 53609-64-6, Doses [Carcinogen]: 100 MG/KG IN SALINE AT BEGINNING OF STUDY, 20 MG/KG IN CITRATE BUFFERED SOLUTION ON D 2, 5, 8 AND 11, 0.1% IN DRINKING, Doses [Carcinogen]: 100 MG/KG IN SALINE AT BEGINNING OF STUDY, 20 MG/KG IN CITRATE BUFFERED SOLUTION ON D 2, 5, 8 AND 11, 0.1% IN DRINKING, Doses [Promoter]: 0, 500 PPM IN DIET BEGINNING POST SEQUENTIAL CARCINOGEN TREATMENT AND CONTINUING FOR DURATION OF STUDY (STUDY DURATION:, Route [Carcinogen]: IP, IP, ORAL, Route [Carcinogen]: IP, IP, ORAL, Route [Promoter]: ORAL, Species: RAT, Strain/Sex: F344/MALE) “thyroid: adenoma”; (Carcinogen: ETHYLNITROSOUREA, 759-73-9, Doses [Carcinogen]: 5 MG/KG ONCE AT 15 D OF AGE, Doses [Promoter]: 0, 500 PPM IN DRINKING WATER BEGINNING AT 5 WK OF AGE AND CONTINUING TO 51 WK OF AGE (STUDY DURATION: 52 WK), Route [Carcinogen]: INTRAPERITONEAL, Route [Promoter]: ORAL, Species: MOUSE, Strain/Sex: CD-1/FEMALE) “liver: adenoma”. The outcome is reported as “liver: carcinoma” (Carcinogen: ETHYLNITROSOUREA, 759-73-9, Doses [Carcinogen]: 5 MG/KG ONCE AT 15 D OF AGE, Doses [Promoter]: 0, 500 PPM IN DRINKING WATER BEGINNING AT 5 WK OF AGE AND CONTINUING TO 51 WK OF AGE (STUDY DURATION: 52 WK), Route [Carcinogen]: INTRAPERITONEAL, Route [Promoter]: ORAL, Species: MOUSE, Strain/Sex: CD-1/MALE); “liver: adenoma, carcinoma” (Carcinogen: ETHYLNITROSOUREA, 759-73-9, Doses [Carcinogen]: 20 MG/KG ONCE AT 15 D OF AGE, Doses [Promoter]: 0, 500 PPM IN DRINKING WATER BEGINNING AT 5 WK OF AGE AND CONTINUING TO 51 WK OF AGE (STUDY DURATION: 52 WK), Route [Carcinogen]: INTRAPERITONEAL, Route [Promoter]: ORAL, Species: MOUSE, Strain/Sex: CD-1/FEMALE); “liver: carcinoma” (Carcinogen: ETHYLNITROSOUREA, 759-73-9, Doses [Carcinogen]: 20 MG/KG ONCE AT 15 D OF AGE, Doses [Promoter]: 0, 500 PPM IN DRINKING WATER BEGINNING AT 5 WK OF AGE AND CONTINUING TO 51 WK OF AGE (STUDY DURATION: 52 WK), Route [Carcinogen]: INTRAPERITONEAL, Route [Promoter]: ORAL, Species: MOUSE, Strain/Sex: CD-1/MALE); “thyroid: neoplasm” (Carcinogen: N-BIS(2-HYDROXYPROPYL)NITROSAMINE, 53609-64-6, Doses [Carcinogen]: 280 MG/100 G/BW ONCE, Doses [Promoter]: 0, 0.05% IN DRINKING WATER FOR 25 WK (STUDY DURATION: 26 WK), Route [Carcinogen]: SUBCUTANEOUS, Route [Promoter]: ORAL, Species: RAT, Strain/Sex: F344/MALE); “lung: carcinoma, prostate/seminal vesicles: tumor” (Carcinogen: N-METHYL-N-NITROSOUREA, 684-93-5, Doses [Carcinogen]: 30 MG/KG BW ONCE, Doses [Promoter]: 0, 0.5% IN DRINKING WATER FOR DURATION OF STUDY BEGINNING POST CARCINOGEN DOSE(STUDY DURATION: 14 MO), Route [Carcinogen]: INTRAVENOUS, Route [Promoter]: ORAL, Species: RAT, Strain/Sex: LOBUND-WISTAR/MALE).

With `N[C@@H](Cc1cc(I)c(Oc2cc(I)c(O)c(I)c2)c(I)c1)C(=O)O`, the outcome runs as follows: (Carcinogen: AZOXYMETHANE, 25843-45-2, Doses [Carcinogen]: 7.4 MG/KG IN 0.9% SALINE 1/WK FOR 10 WK, Doses [Promoter]: 0, 0.2 UG/KG IN OLIVE OIL 1/2 D FOR 35 WK (STUDY DURATION: 35 WK), Route [Carcinogen]: SUBCUTANEOUS, Route [Promoter]: SUBCUTANEOUS, Species: RAT, Strain/Sex: WISTAR/MALE) “colon: tumor”; (Carcinogen: N-METHYL-N'-NITRO-N-NITROSOGUANIDINE, 70-25-7, Doses [Carcinogen]: 25 UG/ML IN DRINKING WATER FOR 25 WK, Doses [Promoter]: 0, 0.2 UG/KG BW IN OLIVE OIL 1/2 D BEGINNING POST CARCINOGEN TREATMENT AND CONTINUING FOR 26 WK (STUDY DURATION: 52 WK), Route [Carcinogen]: ORAL, Route [Promoter]: SUBCUTANEOUS, Species: RAT, Strain/Sex: WISTAR/MALE) “stomach: adenocarcinoma”.

As to `CCN(CC)CCCC(C)Nc1c2ccc(Cl)cc2nc2ccc(OC)cc12` (centres undefined), the outcome (Carcinogen: N-NITROBIS(2-OXOPROPYL)AMINE, 60599-38-4, Doses [Carcinogen]: 10 MG/KG BW 1/WK FOR 3 WK, Doses [Promoter]: 0, 100 PPM IN DIET FOR 37 WK BEGINNING POST CARCINOGEN TREATMENT (STUDY DURATION: 40 WK), Route [Carcinogen]: SUBCUTANEOUS, Route [Promoter]: ORAL, Species: HAMSTER, Strain/Sex: SYRIAN/FEMALE) is listed as “pancreas: adenocarcinoma; liver: hepatocellular adenoma or carcinoma” and the outcome (Carcinogen: N-NITROBIS(2-OXOPROPYL)AMINE, 60599-38-4, Doses [Carcinogen]: 10 MG/KG BW 1/WK FOR 3 WK, Doses [Promoter]: 0, 300 PPM IN DIET FOR 37 WK BEGINNING POST CARCINOGEN TREATMENT (STUDY DURATION: 40 WK), Route [Carcinogen]: SUBCUTANEOUS, Route [Promoter]: ORAL, Species: HAMSTER, Strain/Sex: SYRIAN/FEMALE) was “liver: hepatocellular adenoma or carcinoma”.

As for `C[C@]12CC[C@@H]3c4ccc(O)cc4CC[C@H]3[C@@H]1CC[C@@H]2OC(=O)CCc1ccccc1` (tested in a mixture with another compound), the outcome (Carcinogen: N-NITROSOMORPHOLINE, Doses [Carcinogen]: IG, Route [Carcinogen]: GAVAGE, Route [Promoter]: INTRAMUSCULAR, Species: RAT, Strain/Sex: FEMALE) was “liver”.

As to H-HADGVFTSDYSRLLGQLSAKKYLESLI-NH2, for the setting “Carcinogen: AZOXYMETHANE, 25843-45-2, Doses [Carcinogen]: 7.4 MG/KG BW IN 0.9% SALINE 1/WK FOR 10 WK, Doses [Promoter]: 0, 4 NMOL/KG BW IN OLIVE OIL 1/2 D FOR DURATION OF STUDY (STUDY DURATION: 35 WK), Route [Carcinogen]: SUBCUTANEOUS, Route [Promoter]: SUBCUTANEOUS, Species: RAT, Strain/Sex: WISTAR/MALE, FEMALE”, the outcome is on record as “colon: tumor”.

For `Oc1cccc(Cl)c1`, the outcome (Carcinogen: 7,12-DIMETHYLBENZ(A)ANTHRACENE, Doses [Carcinogen]: TOP, Route [Carcinogen]: DERMAL, Route [Promoter]: DERMAL, Species: MOUSE, Strain/Sex: FEMALE) is listed as “integumentary system (skin)”.

As for `Cc1c2ccccc2c(C)c2c1ccc1ccccc12`, the outcome (Carcinogen: Diethylstilbestrol, 56-53-1, Doses [Carcinogen]: 0, 0.1, 1, 10, 100 ug in 0.05 ml sesame oil once at birth, Doses [Carcinogen]: 0, 0.1, 1, 10, 100 ug in 0.05 ml sesame oil once at birth, Doses [Promoter]: 10 mg in 1 ml sesame oil once by gastric intubation at 50 days of age, study duration 175 or 300 days of age, Route [Carcinogen]: Subcutaneous, Route [Promoter]: Oral, Species: Rat, Strain/Sex: Sprague-Dawley/Female (22/control group; 15; 21; 13; 16/experimental group)) is “mammary carcinomas: 50, 54, 91, 39, 19% at 175 days and 77, 87, 100, 85, 75% at”.
